Laboratory results: patent US11959083B2, “Immunosuppression-reverting oligonucleotides inhibiting the expression of CD39” (Secarna Pharmaceuticals GmbH & Co. KG, priority 2016, dated 2024)
l = locked nucleic acid (LNA); d = 2'-deoxy (DNA)

What was measured:
Type in all cases: cell-based, human
hCD39 mRNA [1] = assay: hCD39 mRNA knockdown efficacy screen in A-172 cells (single dose, gymnotic delivery, QuantiGene Singleplex); conditions: 10 μM, 3 days; for Residual hCD39 mRNA expression relative to untreated cells (set as 1): third screening round; for Mean hCD39 mRNA expression (relative to untreated cells set as 1): first screening round; for Mean hCD39 mRNA expression (relative to untreated cells set as 1) / Relative hCD39 mRNA expression (compared to non-treated cells): normalized to HPRT1; for Relative hCD39 mRNA expression (compared to non-treated cells): second screening round
Summary of the method: (§1)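 Antisense oligonucleotides given once at 10 μM without transfection reagent (gymnotic) to HDLM-2 or A-172 cells for 3 days. hCD39 mRNA measured by QuantiGene Singleplex, normalized to HPRT1 and expressed relative to untreated cells; triplicate means.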

hCD39 mRNA [2] = assay: IC50 determination / concentration-dependent hCD39 mRNA knockdown in HDLM-2 cells; conditions: for mRNA inhibition: HDLM-2, 3 days; for IC50: HDLM-2 cells, hCD39 mRNA, 3 days
Description: HDLM-2 cells were treated for 3 days with the indicated concentration of the respective antisense oligonucleotide. Residual hCD39 expression is depicted compared to untreated control cells. hCD39 mRNA expression values were normalized to expression of the housekeeping gene HPRT1.
The antisense oligonucleotide A04040H (SEQ ID No. 3) that had shown potent activity in the first and second screening round was used as reference. HDLM-2 cells treated for 3 days with the indicated concentrations of the respective antisense oligonucleotide. hCD39 mRNA expression values were normalized to expression of the housekeeping gene HPRT1. Residual hCD39 mRNA expression relative to untreated cells (set as 100) is depicted. Depicted is the mean of triplicate wells+/−SD.
In a second experiment the concentration-dependency of effects and the IC50 values of hCD39 antisense oligonucleotides A04010H (SEQ ID No.14), A04016H (SEQ ID No.20), A04017H (SEQ ID No.21), A04020H (SEQ ID No. 24) and A04026H (SEQ ID No.30) were tested. […] HDLM-2 cells were treated with titrated amounts of the respective antisense oligonucleotide (concentrations: 10 μM, 3.3 μM, 1.1 μM, 370 nM, 120 nM, 41 nM, 14 nM, 4.5 nM). hCD39 mRNA expression was analyzed after three days of treatment. FIG. 5 and Table 9 depicts the concentration-dependent reduction of hCD39 mRNA expression by the selected hCD39 antisense oligonucleotides.
The hCD39 antisense oligonucleotides A04051H (SEQ ID No.88), A04052H (SEQ ID No.89), A04053H ([…]), A04056H (SEQ ID No.92), A04059H (SEQ ID No.94), A04060H (SEQ ID No.95), and A04061H (SEQ ID No.96) had shown potent single-dose activity in both HDLM-2 and A-172 cells. […] The antisense oligonucleotide A04040H that had shown potent activity in the first screening round was used as reference. hCD39 mRNA expression was analyzed after 3 days of treatment. FIG. 7 depicts the concentration-dependent reduction of hCD39 expression by hCD39 antisense oligonucleotides.

hCD39 mRNA [3] = assay: hCD39 mRNA knockdown efficacy screen in HDLM-2 cells (single dose, gymnotic delivery, QuantiGene Singleplex); conditions: 10 μM, 3 days; for Residual hCD39 mRNA expression relative to untreated cells (set as 1): third screening round; for Mean hCD39 mRNA expression normalized to HPRT1 relative to untreated control = 1: first screening round; for Relative hCD39 mRNA expression (compared to non-treated cells): second screening round, normalized to HPRT1
Summary of the method: as §1

[4] = third screening round (Table 12)
[5] = second screening round (Table 9)

Substance	Residual hCD39 mRNA expression relative to untreated cells (set as 1) (hCD39 mRNA [1])	mRNA inhibition (hCD39 mRNA [2]; 4 nM, Table 12) [%]	mRNA inhibition (hCD39 mRNA [2]; 12 nM, Table 12) [%]	mRNA inhibition (hCD39 mRNA [2]; 40 nM, Table 12) [%]	mRNA inhibition (hCD39 mRNA [2]; 110 nM, Table 12) [%]	mRNA inhibition (hCD39 mRNA [2]; 330 nM, Table 12) [%]	mRNA inhibition (hCD39 mRNA [2]; 1000 nM, Table 12) [%]	IC50 (hCD39 mRNA [2]; [4]) [nM]	Residual hCD39 mRNA expression relative to untreated cells (set as 1) (hCD39 mRNA [3])	Mean hCD39 mRNA expression (relative to untreated cells set as 1) (hCD39 mRNA [1])	Relative hCD39 mRNA expression (compared to non-treated cells) (hCD39 mRNA [1])	mRNA inhibition (hCD39 mRNA [2]; 0.0045 μM, Table 9) [%]	mRNA inhibition (hCD39 mRNA [2]; 0.013 μM, Table 9) [%]	mRNA inhibition (hCD39 mRNA [2]; 0.04 μM, Table 9) [%]	mRNA inhibition (hCD39 mRNA [2]; 0.12 μM, Table 9) [%]	mRNA inhibition (hCD39 mRNA [2]; 0.4 μM, Table 9) [%]	mRNA inhibition (hCD39 mRNA [2]; 1.1 μM, Table 9) [%]	mRNA inhibition (hCD39 mRNA [2]; 3.3 μM, Table 9) [%]	mRNA inhibition (hCD39 mRNA [2]; 10 μM, Table 9) [%]	IC50 (hCD39 mRNA [2]; [5]) [nM]	also measured
+G*+G*+T*T*T*G*T*G*T*G*A*G*A*G*C*+T*+T (antisense GGTTTGTGTGAGAGCTT; sugars from the 5' end l3 d12 l2, all phosphorothioate, methylation of C not given here) [A04059H]	0.09	0.00	12.94	72.06	91.84	97.46	98.31	18.3	0.01												mRNA inhibition (hCD39 mRNA [2]; 0.45 nM, Table 12): 1.21%; mRNA inhibition (hCD39 mRNA [2]; 1.3 nM, Table 12): 0.00%
+G*+T*+A*A*G*C*C*C*T*G*A*T*+G*+T*+T (antisense GTAAGCCCTGATGTT; sugars from the 5' end l3 d9 l3, all phosphorothioate, methylation of C not given here) [A04019H]	0.00								0.01	0.03	0.03	22.53	49.52	62.95	82.63	93.96	97.94	99.04	99.00	11.6	mRNA inhibition (hCD39 mRNA [2]; 0.0045 μM, Table 8): −11.65%; mRNA inhibition (hCD39 mRNA [2]; 0.013 μM, Table 8): 8.19%; mRNA inhibition (hCD39 mRNA [2]; 0.04 μM, Table 8): 38.76%; mRNA inhibition (hCD39 mRNA [2]; 0.12 μM, Table 8): 69.42%; mRNA inhibition (hCD39 mRNA [2]; 0.4 μM, Table 8): 88.83%; mRNA inhibition (hCD39 mRNA [2]; 1.1 μM, Table 8): 95.46%; mRNA inhibition (hCD39 mRNA [2]; 3.3 μM, Table 8): 97.89%; mRNA inhibition (hCD39 mRNA [2]; 10 μM, Table 8): 98.39%; IC50 (hCD39 mRNA [2]; first screening round (Table 8)): 40 nM; Mean hCD39 mRNA expression normalized to HPRT1 relative to untreated control = 1 (hCD39 mRNA [3]): 0.08; Relative hCD39 mRNA expression (compared to non-treated cells) (hCD39 mRNA [3]): 0.08
+G*+T*+T*T*G*T*G*T*G*A*G*A*G*C*+T (antisense GTTTGTGTGAGAGCT; sugars from the 5' end l3 d11 l1, all phosphorothioate, methylation of C not given here) [A04061H]	0.10	0.00	0.00	19.90	69.28	92.28	97.43	66.8	0.01												
+G*+T*+T*T*G*T*G*T*G*A*G*A*G*C*+T*+T*+T (antisense GTTTGTGTGAGAGCTTT; sugars from the 5' end l3 d11 l3, all phosphorothioate, methylation of C not given here) [A04056H]	0.09	13.97	37.12	69.95	91.83	97.52	98.49	20.2	0.01												
+G*G*+A*C*A*A*T*G*G*T*T*G*+C*+T*+C (antisense GGACAATGGTTGCTC; sugars from the 5' end l1 d1 l1 d9 l3, all phosphorothioate, methylation of C not given here) [A04016H]										0.09	0.09	18.41	42.19	62.31	77.61	90.51	96.67	98.38	98.94	12.8	Mean hCD39 mRNA expression normalized to HPRT1 relative to untreated control = 1 (hCD39 mRNA [3]): 0.10; Relative hCD39 mRNA expression (compared to non-treated cells) (hCD39 mRNA [3]): 0.10
